Laboratory results reported in article PMC6207618, “The GbsR Family of Transcriptional Regulators: Functional Characterization of the OpuAR Repressor” (Frontiers in Microbiology, 2018).

Columns and labels:
[1] = system: opuAA-treA reporter activity; test: opuAA-treA reporter fusion TreA enzyme activity assay; assay type: cell-based, Bacillus subtilis; details: strain STHB10 (OpuAR+), SMM with 1.2 M NaCl, 1 mM compatible solute
Excerpt: opuAAB.infantis′-treA reporter gene fusions were constructed using primers opuAR treA Frag1/2 rev and either opuAR treA Frag1/4 for (Supplementary Table S2) to amplify a 1940-bp DNA fragment from chromosomal DNA of B. infantis NRRL B-14911, including the predicted opuA promoter region and the coding region of opuAR, or primer opuAR treA Frag2 for, to generate a fragment lacking the opuAR gene. PCR products, which had been cut with BamHI and SmaI, were cloned into the vector pJMB1 ([Hoffmann et al., 2013]). This vector carries a promoterless treA gene, whose gene product [phospho-α-(1,1)-glucosidase] can be assayed and photometrically quantitated with the chromogenic substrate α-PNPG ([Gotsche and Dahl, 1995]). The plasmids resulting for the construction of the treA transcriptional reporter gene fusions were named pSTH33 (opuAR^+/opuAAB.i-treA) and pSTH34 (opuAR^-/opuAAB.i-treA) (Supplementary Table S3). All treA reporter gene fusions were stably integrated as a single copy into the chromosome of various B. subtilis strains at the amyE gene; all of these strains carry a gene disruption mutation of the native chromosomal treA gene of B. subtilis to allow the assignment of the measured TreA enzyme activity to the reporter gene constructs (Supplementary Table S1).
Aliquots (1.5 ml) from cultures of B. subtilis strains carrying chromosomal opuAAB.i′-treA reporter operon gene fusions (Supplementary Table S1) were used to monitor the expression levels by assaying the TreA reporter enzyme activity as described previously using the chromogenic substrate α-PNPG ([Gotsche and Dahl, 1995]). The TreA-specific activity is expressed in units per milligram of protein. Protein concentrations were estimated from the optical density of the cell culture harboring the treA reporter operon gene fusion ([Miller, 1972]).
FIGURE 6 Influence of the B. subtilis GbsR-like regulators on the expression of opuA from B. infantis and its transcriptional response to the presence of compatible solutes. (A) Genetic structure of the opuAA-treA transcriptional reporter fusions. (B) The opuAA-treA reporter gene fusions, either including or lacking the B. infantis opuAR gene, were integrated into the chromosome of the B. subtilis strain STHB05; it carries gene disruption mutations of all three GbsR-like regulators, resulting in strains STHB10 (OpuAR^+) and STHB11 (OpuAR^-). […] The opuAA-treA reporter strains were grown in SMM to early exponential growth phase (OD578 1–1.5) and then assayed for TreA reporter enzyme activity. The shown data represent four independent biological replicates and each culture was assayed twice. (C) Strain STHB10 (opuAR^+/opuAA-treA) was grown in SMM with increasing NaCl concentrations until each of these cultures reached mid-exponential growth phase (OD578 of about 1.5) and were then harvested for TreA reporter enzyme activity assays. The given data are the means and standard deviations of four independent biological replicates and each culture was assayed twice. (D) Expression of the opuAA-treA reporter gene construct in response to extracellular provided compatible solutes. The opuAA-treA reporter fusion strains STHB10 (OpuAR^+) and STHB11 (OpuAR^-) were cultivated in SMM containing 1.2 M NaCl either in the absence or presence of 1 mM of the indicated compatible solutes. The opuAA-treA reporter fusion strains were grown to early exponential growth phase (OD578 1–1.5) and then assayed for TreA reporter enzyme activity. The given data are the means and standard deviations of four independent biological replicates and each culture was assayed twice.
To identify possible effector molecules for the B. infantis OpuAR protein, we conducted a series of in vivo experiments in which we assessed any possible inducing effects of compatible solutes on opuAA-treA transcriptional activity in an OpuAR-dependent fashion (Figure 6D).

[2] = target: B. infantis OpuAR protein (OpuAR-Strep-tag II recombinant protein) (Bacillus infantis NRRL B-14911); test: SEC; HiLoad 16/600 Superdex 200 pg; 2 ml of affinity-purified OpuAR (1.5 mg/ml) loaded straight after purification; 100 mM KPP (pH 8), 300 mM NaCl; column standardised with thyroglobulin, albumin, ovalbumin and cytochrome C

Molecule	Induction of opuAA-treA reporter activity (OpuAR-dependent) [1]	stoichiometry N [2]
C[N+](C)(C)CCOS(=O)(=O)[O-] [choline-O-sulfate]	did not serve as inducers	–
CC1=NCC[C@@H](C(=O)O)N1 [ectoine]	did not serve as inducers	–
B. infantis OpuAR protein (OpuAR-Strep-tag II recombinant protein) (natural protein)	–	2
